According to PubChem BioAssay (NCI):
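Five compound concentrations were applied to cells in 96-well plates for 48 hours; endpoints were derived by simple linear interpolation of the resulting dose-response curve. TGI: concentration producing complete growth inhibition.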

Legend:
Test in all cases: NCI anticancer screen, dose series, 48 h
[1] = tested on: U251 CNS
[2] = tested on: KM12 colon
[3] = tested on: SK-MEL-5 melanoma
[4] = tested on: ACHN renal
[5] = tested on: CAKI-1 renal
[6] = tested on: HCT-116 colon
[7] = tested on: NCI-H23 lung
[8] = tested on: MOLT-4 leukemia
[9] = tested on: HOP-62 NSCLC
[10] = tested on: SF-295 CNS
[11] = tested on: NCI-H226 lung
[12] = tested on: RXF 393 renal
[13] = tested on: HOP-18 NSCLC
[14] = tested on: LXFL 529 NSCLC
[15] = tested on: 786-0 renal
[16] = tested on: A498 renal
[17] = tested on: COLO 205 colon
[18] = tested on: OVCAR-8 ovarian
[19] = tested on: DMS 273 small cell lung
[20] = tested on: OVCAR-5 ovarian
[21] = tested on: A549 NSCLC
[22] = tested on: LOX IMVI melanoma
[23] = tested on: CCRF-CEM leukemia
[24] = tested on: SF-268 CNS
[25] = tested on: OVCAR-3 ovarian
[26] = tested on: SK-OV-3 ovarian
[27] = tested on: SR leukemia
[28] = tested on: TK-10 renal
[29] = tested on: SNB-78 CNS
[30] = tested on: SW-620 colon
[31] = tested on: OVCAR-4 ovarian
[32] = tested on: K-562 leukemia
[33] = tested on: UACC-257 melanoma
[34] = tested on: KM20L2 colon
[35] = tested on: XF 498 CNS
[36] = tested on: NCI-H460 lung
[37] = tested on: IGROV1 ovarian
[38] = tested on: UO-31 renal
[39] = tested on: EKVX NSCLC
[40] = tested on: M19-MEL melanoma
[41] = tested on: RXF-631 renal
[42] = tested on: SK-MEL-2 melanoma
[43] = tested on: SN12C renal
[44] = tested on: NCI-H522 lung
[45] = tested on: M14 melanoma
[46] = tested on: HCC-2998 colon
[47] = tested on: SNB-75 CNS
[48] = tested on: UACC-62 melanoma
[49] = tested on: HCT-15 colon
[50] = tested on: SNB-19 CNS
[51] = tested on: SF-539 CNS
[52] = tested on: HL-60(TB) leukemia
[53] = tested on: SK-MEL-28 melanoma
[54] = tested on: HT29 colon
[55] = tested on: MALME-3M melanoma
[56] = tested on: DLD-1 colon
[57] = tested on: DMS 114 small cell lung
[58] = tested on: RPMI-8226 leukemia
[59] = tested on: HOP-92 NSCLC

Measured: TGI

Cc1ccc(/C=C/C(=O)c2ccc([N+](=O)[O-])cc2)cc1
99.8 µM: [7]
19.1 µM: [16]
> 100 µM: [1] | [2] | [3] | [4] | [5] | [6] | [8] | [9] | [10] | [11] | [12] | [13] | [14] | [15] | [17] | [18] | [19] | [20] | [21] | [22] | [23] | [24] | [25] | [26] | [27] | [28] | [29] | [30] | [31] | [32] | [33] | [34] | [35] | [36] | [37] | [38] | [39] | [40] | [41] | [42] | [43] | [44] | [45] | [46] | [47] | [48] | [49] | [50] | [51] | [52] | [53] | [54] | [55] | [56]

CCCC(=O)c1ccc(=O)n(C)c1
> 100 µM: [1] | [2] | [3] | [4] | [5] | [6] | [7] | [8] | [9] | [10] | [11] | [12] | [14] | [15] | [17] | [18] | [19] | [20] | [21] | [22] | [23] | [24] | [25] | [26] | [27] | [57] | [28] | [30] | [31] | [32] | [34] | [35] | [36] | [37] | [38] | [39] | [40] | [58] | [59] | [41] | [42] | [43] | [44] | [45] | [46] | [47] | [48] | [49] | [50] | [51] | [52] | [53] | [54] | [55] | [56]
